Measurements as given in patent US20120245137A1 (Zalicus Pharmaceuticals Ltd., priority 2009, published 2012).

Tests used:
Type in all cases: cell-based
[1] = molecular target: human α1G T-type channels (Homo sapiens, UniProt O43497); test: T-type calcium channel block, whole cell patch clamp, α1G; conditions: HEK cells stably expressing human α1G; mainly non-inactivated protocol; values above 10,000 nM represented as 10000
In short: (§1)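 Cells are stable HEK 293 lines carrying human α1G or α1H channels, patched in whole-cell mode. Resting block comes from the non-inactivated pre-pulse; voltage-dependent block from the inactivated protocol.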

[2] = molecular target: human α1H T-type channels (Homo sapiens, UniProt O95180); test: T-type calcium channel block, whole cell patch clamp, α1H; conditions: HEK cells stably expressing human α1H; mainly non-inactivated protocol; values above 10,000 nM represented as 10000
In short: as §1

[3] = molecular target: N-type calcium channel subunits (α1B, α2δ, and β3a) (Homo sapiens, UniProt Q00975); test: Block of Cav2.2 channel, whole cell voltage clamp, manual and PatchXpress; conditions: Table 5; table follows Assay Example 3 (whole cell voltage clamp / PatchXpress); assay not given
In short: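 Percent block taken as current amplitude ratio with versus without compound, applied in rising doses; IC50 fitted where one cell received multiple doses. Protocol: 50 ms pulses to +20 mV at 0.067 Hz from […] or −90 mV holding; P/n leak subtraction, no junction-potential correction; manual and PatchXpress recordings.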

Sequence of human α1H T-type channels (O95180 whole entry): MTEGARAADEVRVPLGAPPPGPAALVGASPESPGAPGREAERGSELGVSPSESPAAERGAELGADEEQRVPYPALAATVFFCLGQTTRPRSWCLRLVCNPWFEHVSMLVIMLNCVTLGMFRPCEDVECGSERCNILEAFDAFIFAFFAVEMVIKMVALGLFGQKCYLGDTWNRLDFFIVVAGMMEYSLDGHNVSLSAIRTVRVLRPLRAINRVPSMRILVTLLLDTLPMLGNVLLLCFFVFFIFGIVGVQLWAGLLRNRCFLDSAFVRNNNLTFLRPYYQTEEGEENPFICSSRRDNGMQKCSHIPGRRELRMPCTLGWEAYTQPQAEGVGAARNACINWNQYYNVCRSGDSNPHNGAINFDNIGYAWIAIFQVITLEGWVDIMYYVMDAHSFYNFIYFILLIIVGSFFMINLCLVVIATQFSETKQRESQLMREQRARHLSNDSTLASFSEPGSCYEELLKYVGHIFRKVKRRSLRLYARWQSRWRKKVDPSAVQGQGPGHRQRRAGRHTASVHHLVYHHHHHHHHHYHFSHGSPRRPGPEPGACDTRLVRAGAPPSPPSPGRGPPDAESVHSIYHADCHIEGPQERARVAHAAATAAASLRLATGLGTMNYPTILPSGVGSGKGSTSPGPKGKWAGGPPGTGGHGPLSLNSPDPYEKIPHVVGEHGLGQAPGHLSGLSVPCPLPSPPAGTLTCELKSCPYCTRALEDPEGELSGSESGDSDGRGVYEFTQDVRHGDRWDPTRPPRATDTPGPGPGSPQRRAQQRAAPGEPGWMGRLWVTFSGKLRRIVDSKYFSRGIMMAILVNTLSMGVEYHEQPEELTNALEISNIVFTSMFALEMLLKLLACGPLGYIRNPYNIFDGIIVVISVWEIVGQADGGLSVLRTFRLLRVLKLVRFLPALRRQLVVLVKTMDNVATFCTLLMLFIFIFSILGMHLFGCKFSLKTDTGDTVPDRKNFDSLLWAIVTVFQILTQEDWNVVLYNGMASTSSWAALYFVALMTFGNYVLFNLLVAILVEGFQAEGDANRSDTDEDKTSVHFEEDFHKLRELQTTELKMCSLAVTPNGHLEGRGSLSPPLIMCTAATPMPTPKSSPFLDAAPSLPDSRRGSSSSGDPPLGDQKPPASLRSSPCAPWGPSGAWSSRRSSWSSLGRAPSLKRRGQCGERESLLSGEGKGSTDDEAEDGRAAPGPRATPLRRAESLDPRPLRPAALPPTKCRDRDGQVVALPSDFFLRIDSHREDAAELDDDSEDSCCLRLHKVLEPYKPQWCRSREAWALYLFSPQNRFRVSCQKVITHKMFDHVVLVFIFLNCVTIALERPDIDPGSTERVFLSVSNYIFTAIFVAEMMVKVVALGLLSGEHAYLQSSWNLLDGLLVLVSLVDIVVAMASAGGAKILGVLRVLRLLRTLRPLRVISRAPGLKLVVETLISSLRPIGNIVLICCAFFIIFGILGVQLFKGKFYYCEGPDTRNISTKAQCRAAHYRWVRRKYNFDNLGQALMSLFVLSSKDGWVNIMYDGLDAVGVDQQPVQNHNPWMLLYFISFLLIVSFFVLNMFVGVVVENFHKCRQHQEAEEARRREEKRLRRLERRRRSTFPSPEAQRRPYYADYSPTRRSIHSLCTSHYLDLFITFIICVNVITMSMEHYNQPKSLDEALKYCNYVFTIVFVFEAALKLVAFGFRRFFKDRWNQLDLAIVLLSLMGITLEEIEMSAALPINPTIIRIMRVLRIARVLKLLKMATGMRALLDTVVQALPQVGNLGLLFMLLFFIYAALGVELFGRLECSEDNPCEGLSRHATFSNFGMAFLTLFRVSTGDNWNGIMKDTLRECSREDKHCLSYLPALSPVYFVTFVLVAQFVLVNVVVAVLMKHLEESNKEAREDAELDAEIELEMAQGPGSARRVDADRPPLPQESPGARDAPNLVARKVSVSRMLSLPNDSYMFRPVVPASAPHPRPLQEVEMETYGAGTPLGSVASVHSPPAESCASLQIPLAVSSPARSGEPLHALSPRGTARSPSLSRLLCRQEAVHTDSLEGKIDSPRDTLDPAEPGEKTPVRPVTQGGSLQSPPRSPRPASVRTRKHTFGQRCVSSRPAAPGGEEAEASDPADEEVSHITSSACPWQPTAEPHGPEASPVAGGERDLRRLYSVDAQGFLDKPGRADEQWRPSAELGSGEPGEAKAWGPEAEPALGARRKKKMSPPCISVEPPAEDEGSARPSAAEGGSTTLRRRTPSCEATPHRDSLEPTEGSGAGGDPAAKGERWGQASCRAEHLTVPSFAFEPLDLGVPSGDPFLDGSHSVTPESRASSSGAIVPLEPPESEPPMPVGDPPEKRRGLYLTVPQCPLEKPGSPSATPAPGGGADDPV
Sequence of human α1G T-type channels (O43497 whole entry): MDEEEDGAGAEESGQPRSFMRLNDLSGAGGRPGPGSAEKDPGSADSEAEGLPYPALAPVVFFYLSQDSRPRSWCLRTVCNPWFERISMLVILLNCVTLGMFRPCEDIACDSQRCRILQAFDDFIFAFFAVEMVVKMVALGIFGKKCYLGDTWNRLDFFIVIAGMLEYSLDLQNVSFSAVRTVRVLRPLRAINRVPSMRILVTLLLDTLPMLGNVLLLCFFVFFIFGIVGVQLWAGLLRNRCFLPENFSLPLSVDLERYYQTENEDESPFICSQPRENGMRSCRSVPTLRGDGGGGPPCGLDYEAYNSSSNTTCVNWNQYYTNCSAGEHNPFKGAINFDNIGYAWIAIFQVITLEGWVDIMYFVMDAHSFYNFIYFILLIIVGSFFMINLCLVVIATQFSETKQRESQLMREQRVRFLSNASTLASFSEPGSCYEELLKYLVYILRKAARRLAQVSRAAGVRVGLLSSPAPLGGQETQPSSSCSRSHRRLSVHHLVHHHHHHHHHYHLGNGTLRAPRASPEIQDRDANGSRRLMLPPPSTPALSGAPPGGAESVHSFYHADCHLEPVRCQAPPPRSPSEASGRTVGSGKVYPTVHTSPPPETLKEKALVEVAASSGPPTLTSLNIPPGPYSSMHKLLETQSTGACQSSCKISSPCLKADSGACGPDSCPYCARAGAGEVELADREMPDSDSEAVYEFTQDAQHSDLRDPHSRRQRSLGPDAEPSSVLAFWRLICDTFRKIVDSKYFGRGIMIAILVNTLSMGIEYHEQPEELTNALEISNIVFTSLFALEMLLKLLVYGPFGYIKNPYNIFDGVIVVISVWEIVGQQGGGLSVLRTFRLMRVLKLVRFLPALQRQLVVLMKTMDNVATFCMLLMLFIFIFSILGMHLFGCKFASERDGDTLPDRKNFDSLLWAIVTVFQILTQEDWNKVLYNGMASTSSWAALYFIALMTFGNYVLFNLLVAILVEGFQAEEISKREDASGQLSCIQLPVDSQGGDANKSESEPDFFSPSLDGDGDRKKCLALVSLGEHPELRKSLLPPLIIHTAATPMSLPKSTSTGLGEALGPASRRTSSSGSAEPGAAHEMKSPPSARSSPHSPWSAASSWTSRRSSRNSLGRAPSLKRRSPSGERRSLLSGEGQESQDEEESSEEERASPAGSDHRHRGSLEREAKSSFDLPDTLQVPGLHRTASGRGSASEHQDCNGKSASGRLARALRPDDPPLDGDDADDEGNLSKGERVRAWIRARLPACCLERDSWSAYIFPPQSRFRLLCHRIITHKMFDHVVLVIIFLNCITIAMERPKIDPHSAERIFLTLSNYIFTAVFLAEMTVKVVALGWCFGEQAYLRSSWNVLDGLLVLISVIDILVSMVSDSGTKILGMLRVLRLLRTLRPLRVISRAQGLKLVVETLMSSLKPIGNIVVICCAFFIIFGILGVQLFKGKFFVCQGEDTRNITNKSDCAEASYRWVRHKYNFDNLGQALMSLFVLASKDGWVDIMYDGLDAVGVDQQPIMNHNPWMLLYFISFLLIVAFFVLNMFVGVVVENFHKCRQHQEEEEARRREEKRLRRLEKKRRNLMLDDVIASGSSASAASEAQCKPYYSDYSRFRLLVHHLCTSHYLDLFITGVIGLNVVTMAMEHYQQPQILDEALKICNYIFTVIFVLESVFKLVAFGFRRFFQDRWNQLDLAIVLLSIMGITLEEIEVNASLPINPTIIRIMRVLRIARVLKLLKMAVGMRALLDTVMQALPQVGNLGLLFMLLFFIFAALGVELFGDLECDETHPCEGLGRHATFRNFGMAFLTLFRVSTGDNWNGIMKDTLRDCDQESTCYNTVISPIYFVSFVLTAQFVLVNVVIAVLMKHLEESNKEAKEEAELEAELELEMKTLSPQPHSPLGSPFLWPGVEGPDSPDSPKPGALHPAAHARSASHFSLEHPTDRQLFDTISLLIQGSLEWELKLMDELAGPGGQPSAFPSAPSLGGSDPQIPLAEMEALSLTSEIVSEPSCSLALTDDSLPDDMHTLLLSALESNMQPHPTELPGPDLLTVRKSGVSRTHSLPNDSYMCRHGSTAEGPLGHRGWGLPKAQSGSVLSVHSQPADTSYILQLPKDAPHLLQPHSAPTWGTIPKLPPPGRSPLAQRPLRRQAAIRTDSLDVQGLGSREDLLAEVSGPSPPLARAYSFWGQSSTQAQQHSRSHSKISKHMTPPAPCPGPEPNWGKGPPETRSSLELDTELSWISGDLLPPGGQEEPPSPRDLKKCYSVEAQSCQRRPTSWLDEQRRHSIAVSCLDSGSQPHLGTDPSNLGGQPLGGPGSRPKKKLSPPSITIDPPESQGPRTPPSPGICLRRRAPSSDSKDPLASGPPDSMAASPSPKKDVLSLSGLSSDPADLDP

| IC50 [1] [µM] | IC50 [2] [µM] | IC50 [3] [nM] | Compound |
| --- | --- | --- | --- |
| 8.56 | 0.93 | 1020 | CS(=O)(=O)c1cc(C(F)(F)F)ccc1C(=O)N[C@H]1CC[C@@](F)(S(=O)(=O)c2cc(F)cc(C(F)(F)F)c2)CC1 [Compound 330, N-((1S,4S)-4-fluoro-4-(3-fluoro-5-(trifluoromethyl)phenylsulfonyl)cyclohexyl)-2-(methylsulfonyl)-4-(trifluoromethyl)benzamide] |
| 8.81 | 2.58 | 1220 | CN(C(=O)CN[C@H]1CC[C@H](S(=O)(=O)c2cccc(C(F)(F)F)c2)CC1)C(C)(C)C [Compound 70, N-tert-butyl-N-methyl-2-((1R,4R)-4-(3-(trifluoromethyl)phenylsulfonyl)cyclohexylamino)acetamide] |
| 2.65 | 0.36 | 260 | O=C(N[C@H]1CC[C@@](F)(S(=O)(=O)c2cccc(C(F)(F)F)c2)CC1)c1ccc(OCC(F)(F)F)nc1 [Compound 249, N-((1S,4S)-4-fluoro-4-(3-(trifluoromethyl)phenylsulfonyl)cyclohexyl)-6-(2,2,2-trifluoroethoxy)nicotinamide] |
| 1.14 | 0.86 | 2690 | CC1(NC(=O)c2ncc(C(F)(F)F)cc2S(C)(=O)=O)CCC(S(=O)(=O)c2cccc(C(F)(F)F)c2)CC1 (stereo not drawn) [Compound 317, N-(1-methyl-4-(3-(trifluoromethyl)phenylsulfonyl)cyclohexyl)-3-(methylsulfonyl)-5-(trifluoromethyl)picolinamide] |
| > 10 | > 10 | 90 | CN(C(=O)CN[C@H]1CC[C@@H](S(=O)(=O)c2cccc(C(F)(F)F)c2)CC1)C(C)(C)C [Compound 50, N-tert-butyl-N-methyl-2-((1S,4S)-4-(3-(trifluoromethyl)phenylsulfonyl)cyclohexylamino)acetamide] |
| 1.19 | 0.46 | 320 | O=C(N[C@H]1CC[C@@](F)(S(=O)(=O)c2cccc(OC(F)(F)F)c2)CC1)c1ccnn1CC(F)(F)F [Compound 253] |
| 0.29 | 0.19 | 600 | O=C(N[C@H]1CC[C@@H](S(=O)(=O)c2cc(F)cc(C(F)(F)F)c2)CC1)c1ccc(F)c(Cl)c1 [Compound 320, 3-chloro-4-fluoro-N-((1S,4S)-4-(3-fluoro-5-(trifluoromethyl)phenylsulfonyl)cyclohexyl) benzamide] |
| 6.9 | 9.02 | 680 | CS(=O)(=O)c1nc(C(F)(F)F)ccc1C(=O)N[C@H]1CC[C@@](F)(S(=O)(=O)c2cccc(OC(F)(F)F)c2)CC1 [Compound 257] |
| 1.19 | 0.44 | 630 | O=C(N[C@H]1CC[C@](F)(S(=O)(=O)c2cccc(C(F)(F)F)c2)CC1)c1cc(C(F)(F)F)ccn1 [Compound 79, N-((1R,4R)-4-fluoro-4-(3-(trifluoromethyl)phenylsulfonyl)cyclohexyl)-4-(trifluoromethyl)picolinamide] |
| > 10 | > 10 | 3430 | O=C(Nc1cncc(Cl)c1)[C@H]1C[C@H](S(=O)(=O)c2cccc(C(F)(F)F)c2)C1 [Compound 419, (1R,3R)-N-(5-chloropyridin-3-yl)-3-(3-(trifluoromethyl)phenylsulfonyl)cyclobutane carboxamide] |
| 1.35 | 0.72 | 2410 | O=C(N[C@H]1CC[C@@H](S(=O)(=O)c2cc(F)cc(C(F)(F)F)c2)CC1)c1ccnn1CC(F)(F)F [Compound 323, N-((1S,4S)-4-(3-fluoro-5-(trifluoromethyl)phenylsulfonyl)cyclohexyl)-1-(2,2,2-trifluoroethyl)-1Hpyrazole-5-carboxamide] |
| 0.97 | 0.85 | 400 | O=S(=O)(N[C@H]1CC[C@@](F)(S(=O)(=O)c2cccc(C(F)(F)F)c2)CC1)c1ccc(OC(F)(F)F)cc1 [Compound 302, N-((1S,4S)-4-fluoro-4-(3-(trifluoromethyl)phenylsultonyl)cyclohexyl)-4-(trifluoromethoxy) benzenesulfonamide] |
| 0.63 | 0.27 | 1450 | O=C(N[C@H]1C[C@H](CS(=O)(=O)c2cccc(C(F)(F)F)c2)C1)c1ccc(Cl)c(F)c1 [Compound 343, 4-chloro-3-fluoro-N-((1R,3R)-3-((3-(trifluoromethyl)phenylsulfonyl)methyl)cyclobutyl)benzamide] |
| > 10 | 8.66 | 910 | CN(C(=O)c1ncc(C(F)(F)F)cc1S(C)(=O)=O)[C@H]1CC[C@@](F)(S(=O)(=O)c2cc(F)cc(C(F)(F)F)c2)CC1 [Compound 337, N-((1S,4S)-4-fluoro-4-(3-fluoro-5-(trifluoromethyl)phenylsulfonyl)cyclohexyl)-N-methyl-3-(methylsulfonyl)-5-(trifluoromethyl)picolinarnide] |

More lines, now with the values behind:

| Compound | IC50 [1] [µM] | IC50 [2] [µM] | IC50 [3] [nM] |
| --- | --- | --- | --- |
| CC(C)(NC(=O)[C@H]1C[C@H](S(=O)(=O)c2cccc(C(F)(F)F)c2)C1)c1ccc(F)cc1 [Compound 402, (1R,3R)-N-(2-(4-fluorophenyl)propan-2-yl)-3-(3-(trifluoromethyl)phenylsulfonyl)cyclobutane carboxamide] | 0.64 | 0.57 | 1700 |
| CN(C(=O)CN[C@H]1CC[C@@](F)(S(=O)(=O)c2cccc(C(F)(F)F)c2)CC1)C(C)(C)C [Compound 88, N-tert-butyl-2-((1S,4S)-4-fluoro-4-(3-(trifluoromethyl)phenylsulfonyl)cyclohexylamino)-N-methylacetamide] | > 10 | 3.03 | 70 |
| COc1cc(F)cc(C(=O)N[C@H]2CC[C@@H](CS(=O)(=O)c3cccc(C(F)(F)F)c3)CC2)c1 [Compound 136, 3-fluoro-5-methoxy-N-((1S,4S)-4-((3-(trifluoromethyl)phenylsulfonyl)methyl)cyclohexyl)benzamide] | 0.54 | 0.55 | 440 |
| O=C(NC[C@H]1C[C@H](S(=O)(=O)c2cccc(C(F)(F)F)c2)C1)c1cn2cc(C(F)(F)F)ccc2n1 [Compound 360, 6-(trifluoromethyl)-N-(((1R,3R)-3-(3-(trifluoromethyl)phenylsulfonyl)cyclobutyl)methyl)imidazo[l,2-a]pyridine-2-carboxamide] | > 10 | > 10 | 190 |
| CCN(CC)C(=O)CN[C@H]1CC[C@H](CS(=O)(=O)c2cccc(C(F)(F)F)c2)CC1 [Compound 116, N,N-diethyl-2-((1R,4R)-4-((3-(trifluoromethyl)phenylsulfonyl)methyl)cyclohexylamino)acetamide] | 8.32 | 4.24 | 2090 |
| COc1cc(Cl)ccc1C(=O)N[C@H]1CC[C@@](F)(S(=O)(=O)c2cccc(C(F)(F)F)c2)CC1 [Compound 265, 4-chloro-N-((1S,4S)-4-fluoro-4-(3-(trifluoromethyl)phenylsulfonyl)cyclohexyl)-2-methoxybenzamide] | > 10 | > 10 | 260 |
| O=C(NC[C@H]1CC[C@@H](S(=O)(=O)c2cccc(C(F)(F)F)c2)CC1)c1ccc(F)c(C(F)(F)F)c1 [Compound 31, 4-fluoro-3-(trifluoromethyl)-N-(((1S,4S)-4-(3-(trifluoromethyl)phenylsulfonyl)cyclohexyl)methyl)benzamide] | 1.15 | 5.54 | 360 |
| O=C(NC1CCC(S(=O)(=O)c2cccc(C(F)(F)F)c2)CC1)c1ccc(C(F)(F)F)nc1 (stereo not drawn) [Compound 8, 6-(trifluoromethyl)-N-(4-(3-(trifluoromethyl)phenylsulfonyl)cyclohexyl)nicotinamide] | > 10 | 6.71 | 2300 |
| O=C(NC[C@H]1C[C@@H](S(=O)(=O)c2cccc(C(F)(F)F)c2)C1)c1ccnn1CC(F)(F)F [Compound 387, 1-(2,2,2-trifluoroethyl)-N-(((1S,3S)-3-(3-(trifluoromethyl)phenylsulfonyl)cyclobutyl)methyl)-1H-pyrazole-5-carboxamide] | 0.72 | 0.71 | 4220 |
| O=C(N[C@H]1CC[C@@](F)(S(=O)(=O)c2cccc(C(F)(F)F)c2)CC1)C1(C(F)(F)F)CC1 [Compound 275, N-((1S,4S)-4-fluoro-4-(3-(trifluoromethyl)phenylsulfonyl)cyclohexyl)-1-(trifluoromethyl) cyclopropaneCarboxamide] | > 10 | > 10 | 700 |
| CC(C)(C)NC(=O)CN[C@H]1CC[C@@H](S(=O)(=O)c2cccc(C(F)(F)F)c2)CC1 [Compound 49, N-tert-butyl-2-((1S,4S)-4-(3-(trifluoromethyl)phenylsulfonyl)cyclohexylamino)acetamide] | > 10 | > 10 | 200 |
| O=C(N[C@H]1CC[C@](F)(S(=O)(=O)c2cccc(C(F)(F)F)c2)CC1)c1nc2cc(C(F)(F)F)ccc2[nH]1 [Compound 80, N-((1R,4R)-4-fluoro-4-(3-(trifluoromethyl)phenylsulfonyl)cyclohexyl)-5-(trifluoromethyl)-1H-benzo[d]imidazole-2-carboxamide] | 0.9 | 0.46 | 4310 |
| N-tert-butyl-2-((1S,4S)-4-((3- (trifluoromethyl)phenylsulfonyl) methyl)cyclohexylamino)acetamide [Compound 144] | 1.35 | 0.67 | 1250 |
